In PMC3923730 (Journal of Translational Medicine, 2014):
Marks after values point to notes of the source that are not given here.

Tests used:
[1] = Phase I trial pharmacokinetics, single i.v. ascending doses; assay type: in vivo, human
Description: A randomized, double-blind, placebo controlled study was performed to investigate the safety, tolerability and pharmacokinetics of single i.v. ascending doses of TRO40303 in healthy male and post-menopausal female subjects. The choice of the dose and flow rate escalation process is explained in the Result section. Seventy-two healthy volunteers were randomized, with 18 receiving a placebo and 54 an active liposomal formulation containing 20 mg/mL TRO40303 at final doses ranging from 0.5, 1, 2, 3.5, 6, 10 to 13 mg/kg with escalating flow rates from 0.04 mL/min to 35 mL/min. Within each group, 3 or 6 subjects received TRO40303 and 1 or 2 subjects received the same volume of placebo. The sample size was based on the number of doses and flow rates to be investigated. The 6 verum/2 placebo ratio per group is widely used in single ascending dose studies and provides adequate safety and pharmacokinetic information. The 3 verum/1 placebo ratio used in the last groups was chosen only to explore additional flow rates at previously studied doses.
Venous blood samples (5 mL) were collected for determination of TRO40303 concentrations in plasma at pre-dose, end of infusion, then 5 min, 15 min, 30 min, 1 h, 2 h, 4 h, 8 h, 12 h, 16 h, 24 h, 48 h, 72 h and 96 h post end of infusion into heparin–lithium Vacutainer tubes. The blood samples were gently inverted then centrifuged in a refrigerated centrifuge (+4°C) within 30 min after sampling at 1500 g for ca 10 min. The resulting plasma was frozen in two separate labelled polypropylene tubes at –20 ± 5°C until assaying.
For the quantifying TRO40303 levels in human plasma samples, the same method, GLP validated, was used and the analysis was performed at Bertin Pharma (Orleans, France). Analysis was carried out on 1200 Series (Agilent) and Series 200 (Perkin Elmer) systems interfaced to an API 4000 (AB Sciex) MS detector. Calculations were carried out with Analyst 1.4.1 and 1.5.1 (AB Sciex) software.

[2] = TRO40303 heart level measurement in rats; assay type: in vivo; settings: rat, 1 mg/kg i.v. in IL30 10 min before CAO or 10 min before CAR, 5 min post reperfusion, AAR and remainder of left ventricle
Description: TRO40303 was administered by intravenous (i.v.) bolus to healthy rats at doses of 0.3, 1, 3 and 10 mg/kg in IL30 under isoflurane gas anaesthesia. A maximum of 0.25 mL of blood was collected into lithium heparin tubes at 5, 15 and 30 min, 1 h, 2 h, 4 h, 8 h and 24 h after drug administration (3 rats per time point). The blood samples were cooled on ice and plasma samples were prepared within 60 min of sampling by centrifugation at 1500 g at 4 °C for 10 min and stored at –20°C until analysis. For heart level measurements, TRO40303 was administrated i.v. to rats undergoing the myocardial infarction procedure at the dose of 1 mg/kg in IL30 either 10 min before CAO or 10 min before CAR. Five min after CAR, rats were anesthetised and sacrificed, hearts were isolated and washed with saline. […] After TRO40303 plasma concentration analysis, TRO40303 plasma AUC(0-∞) (the area under the curve extrapolated from time zero to time infinity), was calculated using Kinetica™, version 4.4.1 (Thermo Electron Corporation, Philadelphia, PA 19103, USA). The results were analyzed in comparison with previous pharmacokinetic data obtained with TRO40303 formulated in HPBCD at 2.5 mg/kg.
Thawed preclinical samples were extracted with acetonitrile, centrifuged, purified on SPEC C2 cartridge (Varian) for the heart samples and analysed along with calibration standards. […]

[3] = human, single i.v., liposomes, 0.5 mg/kg, n = 4
[4] = human, single i.v., liposomes, 0.5 mg/kg, n = 6
[5] = human, single i.v., liposomes, 1 mg/kg, n = 6
[6] = human, single i.v., liposomes, 2 mg/kg, n = 6
[7] = human, single i.v., liposomes, 3.5 mg/kg, n = 9
[8] = human, single i.v., liposomes, 6 mg/kg, n = 11
[9] = human, single i.v., liposomes, 6 mg/kg, n = 12
[10] = human, single i.v., liposomes, 10 mg/kg, n = 9
[11] = human, single i.v., liposomes, 13 mg/kg, n = 6
[12] = human, single i.v., liposomes, over all doses
[13] = liposomes in human, IL30 in rats

CC(C)CCC[C@@H](C)[C@H]1CC[C@H]2[C@@H]3CC/C(=N\O)[C@](C)(CCCO)[C@H]3CC[C@]12C [TRO40303, 3,5-seco-4-nor-cholestan-5-one oxime-3-ol]
dose proportionality of Cmax and AUC(0-∞) ([1]; human, from 0.5 to 6 mg/kg): linear | hyper-proportionality of Cmax and AUC(0-∞) ([1]; human, from 6 to 13 mg/kg): ~ 1.5 fold | AUC(0-∞) Mean [1, 3]: 15.5* μg.h/mL | AUC(0-∞) Min-max [1, 3]: 9130 to 20900 ng·h/mL | C5min Min-max [1, 4]: 1.59 to 3.92 µg/mL | CL Mean [1, 4]: 0.598 mL/min/kg | CL Min-max [1, 4]: 0.399 to 0.912 mL/min/kg | Cmax Mean [1, 4]: 3320 ng/mL | Cmax Min-max [1, 4]: 2310 to 4850 ng/mL | Terminal t1/2 Mean [1, 4]: 29.5 h | Terminal t1/2 Min-max [1, 4]: 27.0 to 31.5 h | Vz Mean [1, 4]: 1.54 L/kg | Vz Min-max [1, 4]: 0.00103 to 0.00249 L/kg | C5min Mean ([1]; human, single i.v., liposomes, 0.5 mg/kg, n = 6, 5 min post end of infusion): 2.58 µg/mL | AUC(0-∞) Mean [1, 5]: 34.5 µg·h/mL | AUC(0-∞) Min-max [1, 5]: 21000 to 43000 ng·h/mL | C5min Min-max [1, 5]: 5.98 to 12.5 µg/mL | CL Mean [1, 5]: 0.509 mL/min/kg | CL Min-max [1, 5]: 0.388 to 0.792 mL/min/kg | Cmax Mean [1, 5]: 10300 ng/mL | Cmax Min-max [1, 5]: 6060 to 14100 ng/mL | Terminal t1/2 Mean [1, 5]: 25.1 h | Terminal t1/2 Min-max [1, 5]: 22.9 to 26.8 h | Vz Mean [1, 5]: 1.11 L/kg | Vz Min-max [1, 5]: 0.000899 to 0.00177 L/kg | C5min Mean ([1]; human, single i.v., liposomes, 1 mg/kg, n = 6, 5 min post end of infusion): 9.26 µg/mL | C5min Min-max ([1]; human, single i.v., liposomes, 2 mg/kg, n = 5): 16.7 to 26.8 µg/mL | C5min Mean ([1]; human, single i.v., liposomes, 2 mg/kg, n = 5, 5 min post end of infusion): 23.6** μg/mL | AUC(0-∞) Mean [1, 6]: 68.6 µg·h/mL | AUC(0-∞) Min-max [1, 6]: 50700 to 81500 ng·h/mL | CL Mean [1, 6]: 0.499 mL/min/kg | CL Min-max [1, 6]: 0.409 to 0.657 mL/min/kg | Cmax Mean [1, 6]: 23100 ng/mL | Cmax Min-max [1, 6]: 16000 to 31100 ng/mL | Terminal t1/2 Mean [1, 6]: 26.4 h | Terminal t1/2 Min-max [1, 6]: 24.3 to 28.7 h | Vz Mean [1, 6]: 1.14 L/kg | Vz Min-max [1, 6]: 0.00091 to 0.00152 L/kg | AUC(0-∞) Mean [1, 7]: 109 µg·h/mL | AUC(0-∞) Min-max [1, 7]: 81000 to 163000 ng·h/mL | C5min Min-max [1, 7]: 37.1 to 68.7 µg/mL | CL Mean [1, 7]: 0.560 mL/min/kg | CL Min-max [1, 7]: 0.357 to 0.721 mL/min/kg | Cmax Mean [1, 7]: 51700 ng/mL | Cmax Min-max [1, 7]: 37700 to 68700 ng/mL | Terminal t1/2 Mean [1, 7]: 25.1 h | Terminal t1/2 Min-max [1, 7]: 23.1 to 27.7 h | Vz Mean [1, 7]: 1.22 L/kg | Vz Min-max [1, 7]: 0.000723 to 0.00152 L/kg | C5min Mean ([1]; human, single i.v., liposomes, 3.5 mg/kg, n = 9, 5 min post end of infusion): 50.2 µg/mL | AUC(0-∞) Mean [1, 8]: 229*** μg.h/mL | AUC(0-∞) Min-max [1, 8]: 147000 to 307000 ng·h/mL | C5min Min-max [1, 9]: 51.6 to 266 µg/mL | CL Mean [1, 9]: 0.460 mL/min/kg | CL Min-max [1, 9]: 0.326 to 0.680 mL/min/kg | Cmax Mean [1, 9]: 118000 ng/mL | Cmax Min-max [1, 9]: 59500 to 266000 ng/mL | Terminal t1/2 Mean [1, 9]: 24.4 h | Terminal t1/2 Min-max [1, 9]: 21.2 to 30.0 h | Vz Mean [1, 9]: 0.964 L/kg | Vz Min-max [1, 9]: 0.000611 to 0.00134 L/kg | C5min Mean ([1]; human, single i.v., liposomes, 6 mg/kg, n = 12, 5 min post end of infusion): 112 µg/mL | AUC(0-∞) Mean [1, 10]: 408 µg·h/mL | AUC(0-∞) Min-max [1, 10]: 303000 to 501000 ng·h/mL | C5min Min-max [1, 10]: 120 to 279 µg/mL | CL Mean [1, 10]: 0.422 mL/min/kg | CL Min-max [1, 10]: 0.332 to 0.549 mL/min/kg | Cmax Mean [1, 10]: 194000 ng/mL | Cmax Min-max [1, 10]: 130000 to 279000 ng/mL | Terminal t1/2 Mean [1, 10]: 25.3 h | Terminal t1/2 Min-max [1, 10]: 19.3 to 30.2 h | Vz Mean [1, 10]: 0.929 L/kg | Vz Min-max [1, 10]: 0.000624 to 0.00144 L/kg | C5min Mean ([1]; human, single i.v., liposomes, 10 mg/kg, n = 9, 5 min post end of infusion): 193 µg/mL | AUC(0-∞) Mean [1, 11]: 651 µg·h/mL | AUC(0-∞) Min-max [1, 11]: 468000 to 814000 ng·h/mL | C5min Min-max [1, 11]: 148 to 371 µg/mL | CL Mean [1, 11]: 0.347 mL/min/kg | CL Min-max [1, 11]: 0.266 to 0.463 mL/min/kg | Cmax Mean [1, 11]: 259000 ng/mL | Cmax Min-max [1, 11]: 167000 to 371000 ng/mL | Terminal t1/2 Mean [1, 11]: 24.4 h | Terminal t1/2 Min-max [1, 11]: 20.1 to 28.6 h | Vz Mean [1, 11]: 0.723 L/kg | Vz Min-max [1, 11]: 0.000599 to 0.000989 L/kg | C5min Mean ([1]; human, single i.v., liposomes, 13 mg/kg, n = 6, 5 min post end of infusion): 248 µg/mL | Vz [1, 12]: 1.1 L/kg | mean penultimate thalf (when at least 80% of drug was eliminated) [1, 12]: 4 h | mean terminal thalf [1, 12]: 25 h | AUC(0-∞) in humans compared to rats for the same dose [1, 13]: ~ 7 fold | C5min in humans compared to rats for the same dose [1, 13]: ~ 2 fold | concentration of TRO40303 in heart tissue [2]: ~ 1 μg/g
